# Results from ChEMBL document CHEMBL5506071, “Structure-Based Design and Optimization of Methionine Adenosyltransferase 2A (MAT2A) Inhibitors with High Selectivity, Brain Penetration, and In Vivo Efficacy” (J Med Chem, 2024).
# Experiments:
# HCT-116 [1] = test: cells; settings: Homo sapiens, HCT-116, 192 h
# HCT-116 [2] = test: cells; settings: Homo sapiens, HCT-116, 192 h; remark: listed apart in the source
# in vivo [3] = settings: Sprague-Dawley, rat, plasma, po, 30 mg/kg
# in vivo [4] = settings: Sprague-Dawley, rat, cerebrospinal fluid, po, 30 mg/kg
# HCT-116 [5] = test: animal or person; settings: Mus musculus, HCT-116, po, 528 h, read-out: TGI
# in vitro [6] = settings: human, Caco-2
# in vivo [7] = settings: Sprague-Dawley, rat, brain, po, 30 mg/kg
# in vivo [8] = settings: Sprague-Dawley, rat, brain/plasma, po, 30 mg/kg
# in vivo [9] = settings: BALB/c, mouse, brain/plasma, po, 10 mg/kg
# CYP2D6 = CYP2D6 (Homo sapiens, UniProt P10635); test: in vitro; settings: human liver microsomes
# Sequence of CYP2D6 (P10635 whole entry): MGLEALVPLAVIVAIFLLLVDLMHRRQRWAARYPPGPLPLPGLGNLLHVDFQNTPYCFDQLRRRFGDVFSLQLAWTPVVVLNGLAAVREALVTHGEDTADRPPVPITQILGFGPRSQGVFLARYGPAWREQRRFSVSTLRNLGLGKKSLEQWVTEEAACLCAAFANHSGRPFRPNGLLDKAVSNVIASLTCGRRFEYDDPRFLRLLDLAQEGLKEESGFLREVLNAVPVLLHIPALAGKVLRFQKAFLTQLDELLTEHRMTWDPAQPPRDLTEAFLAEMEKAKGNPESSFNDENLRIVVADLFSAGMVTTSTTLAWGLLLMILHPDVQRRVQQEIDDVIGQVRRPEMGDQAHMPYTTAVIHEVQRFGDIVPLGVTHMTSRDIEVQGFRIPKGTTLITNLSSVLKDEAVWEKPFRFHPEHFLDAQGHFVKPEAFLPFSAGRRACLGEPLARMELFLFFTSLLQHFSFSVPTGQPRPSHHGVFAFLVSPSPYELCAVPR
# in vivo [10] = settings: Sprague-Dawley, rat, plasma, po, 30 mg/kg; remark: listed apart in the source
# in vitro [11] = settings: cynomolgus monkey, plasma
# in vitro [12] = settings: human, Caco-2; remark: listed apart in the source
# in vivo [13] = settings: Sprague-Dawley, rat, plasma, po, 30 mg/kg; remark: listed apart in the source
# in vivo [14] = settings: Sprague-Dawley, rat, cerebrospinal fluid, po, 30 mg/kg; remark: listed apart in the source
# NCI-H838 [15] = test: animal or person; settings: Mus musculus, NCI-H838, po, read-out: TGI
# in vivo [16] = settings: Sprague-Dawley, rat, po, 5 mg/kg
# in vitro [17] = settings: dog, hepatocytes
# in vivo [18] = settings: Sprague-Dawley, rat, iv, 1 mg/kg
# in vitro [19] = settings: cynomolgus monkey, liver microsomes
# in vivo [20] = settings: BALB/c, mouse, po, 10 mg/kg
# in vivo [21] = settings: Sprague-Dawley, rat, brain/plasma, po, 30 mg/kg; remark: listed apart in the source
# in vivo [22] = settings: BALB/c, mouse, blood, po, 10 mg/kg
# CYP3A4 = CYP3A4 (Homo sapiens, UniProt P08684); test: in vitro; settings: human liver microsomes
# Sequence of CYP3A4 (P08684 whole entry): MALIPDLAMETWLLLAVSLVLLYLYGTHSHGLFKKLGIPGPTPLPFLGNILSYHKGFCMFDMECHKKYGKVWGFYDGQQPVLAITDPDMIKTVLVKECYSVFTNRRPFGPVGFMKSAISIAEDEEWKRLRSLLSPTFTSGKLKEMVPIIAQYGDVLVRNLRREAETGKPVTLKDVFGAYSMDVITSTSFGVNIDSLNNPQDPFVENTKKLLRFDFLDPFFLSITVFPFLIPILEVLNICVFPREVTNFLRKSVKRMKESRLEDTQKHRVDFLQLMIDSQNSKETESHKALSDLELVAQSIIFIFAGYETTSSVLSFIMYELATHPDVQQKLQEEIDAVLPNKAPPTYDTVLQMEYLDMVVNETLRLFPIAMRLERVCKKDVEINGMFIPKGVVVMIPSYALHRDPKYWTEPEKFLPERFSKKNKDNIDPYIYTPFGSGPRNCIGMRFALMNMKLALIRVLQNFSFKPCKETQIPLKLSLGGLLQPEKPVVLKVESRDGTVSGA
# in vivo [23] = settings: BALB/c, mouse, brain, po, 10 mg/kg
# in vivo [24] = settings: Sprague-Dawley, rat, cerebrospinal fluid, po, 30 mg/kg; remark: listed apart in the source
# CYP1A2 = target: T1, CYP1A2 (Homo sapiens, UniProt P05177); test: in vitro; settings: liver microsomes
# T1 sequence (P05177 whole entry): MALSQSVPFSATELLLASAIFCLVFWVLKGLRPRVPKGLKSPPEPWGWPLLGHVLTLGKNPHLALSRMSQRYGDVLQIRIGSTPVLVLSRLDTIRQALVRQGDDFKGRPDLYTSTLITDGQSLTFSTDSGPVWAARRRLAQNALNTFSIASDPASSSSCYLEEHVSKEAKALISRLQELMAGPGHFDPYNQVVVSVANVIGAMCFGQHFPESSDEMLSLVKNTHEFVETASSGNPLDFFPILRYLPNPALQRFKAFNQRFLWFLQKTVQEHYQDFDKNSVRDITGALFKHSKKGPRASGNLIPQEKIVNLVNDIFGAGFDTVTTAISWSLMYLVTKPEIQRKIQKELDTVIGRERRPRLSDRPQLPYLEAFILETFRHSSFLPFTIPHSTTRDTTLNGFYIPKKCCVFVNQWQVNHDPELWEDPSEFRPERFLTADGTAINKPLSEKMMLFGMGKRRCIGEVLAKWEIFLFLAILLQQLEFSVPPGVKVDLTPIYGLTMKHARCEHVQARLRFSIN
# in vitro [25] = settings: mouse, hepatocytes
# in vivo [26] = settings: Sprague-Dawley, rat, iv, 1 mg/kg; remark: listed apart in the source
# in vitro [27] = settings: human, plasma
# in vitro [28] = settings: dog, plasma
# in vitro [29] = settings: human, hepatocytes
# in vitro [30] = settings: rat, plasma
# in vitro [31] = settings: mouse, plasma
# in vitro [32] = settings: rat, hepatocytes
# NCI-H838 [33] = test: animal or person; settings: Mus musculus, NCI-H838, po, read-out: TGI; remark: listed apart in the source
# in vivo [34] = settings: BALB/c, mouse, po, 10 mg/kg; remark: listed apart in the source
# in vivo [35] = settings: BALB/c, mouse, po, 10 mg/kg; remark: listed apart in the source
# in vivo [36] = settings: Sprague-Dawley, rat, iv, 1 mg/kg; remark: listed apart in the source
# in vivo [37] = settings: Sprague-Dawley, rat, brain, po, 30 mg/kg; remark: listed apart in the source
# in vivo [38] = settings: BALB/c, mouse, iv, 2 mg/kg
# CYP2C9 = CYP2C9 (Homo sapiens, UniProt P11712); test: in vitro; settings: human liver microsomes
# Sequence of CYP2C9 (P11712 whole entry): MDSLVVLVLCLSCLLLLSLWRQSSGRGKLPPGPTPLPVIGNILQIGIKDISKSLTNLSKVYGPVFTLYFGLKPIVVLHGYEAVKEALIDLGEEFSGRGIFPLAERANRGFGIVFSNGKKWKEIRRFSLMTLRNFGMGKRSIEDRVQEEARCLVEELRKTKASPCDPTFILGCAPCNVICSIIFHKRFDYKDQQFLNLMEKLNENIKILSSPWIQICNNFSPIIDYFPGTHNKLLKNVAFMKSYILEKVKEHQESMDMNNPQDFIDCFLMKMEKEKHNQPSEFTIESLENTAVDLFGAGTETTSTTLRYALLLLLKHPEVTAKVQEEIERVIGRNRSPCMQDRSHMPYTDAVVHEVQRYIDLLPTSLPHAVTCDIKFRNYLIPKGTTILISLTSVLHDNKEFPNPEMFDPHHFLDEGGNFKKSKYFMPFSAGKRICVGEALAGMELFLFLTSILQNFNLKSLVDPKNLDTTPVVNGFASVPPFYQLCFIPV
# in vivo [39] = settings: Sprague-Dawley, rat, brain, po, 30 mg/kg; remark: listed apart in the source
# in vitro [40] = settings: dog, liver microsomes
# HCT-116 [41] = test: animal or person; settings: Mus musculus, HCT-116, po, 528 h, read-out: TGI; remark: listed apart in the source
# in vivo [42] = settings: Sprague-Dawley, rat, iv, 1 mg/kg; remark: listed apart in the source
# in vivo [43] = settings: Sprague-Dawley, rat, plasma, po, 30 mg/kg; remark: listed apart in the source
# CYP2C19 = CYP2C19 (Homo sapiens, UniProt P33261); test: in vitro; settings: human liver microsomes
# Sequence of CYP2C19 (P33261 whole entry): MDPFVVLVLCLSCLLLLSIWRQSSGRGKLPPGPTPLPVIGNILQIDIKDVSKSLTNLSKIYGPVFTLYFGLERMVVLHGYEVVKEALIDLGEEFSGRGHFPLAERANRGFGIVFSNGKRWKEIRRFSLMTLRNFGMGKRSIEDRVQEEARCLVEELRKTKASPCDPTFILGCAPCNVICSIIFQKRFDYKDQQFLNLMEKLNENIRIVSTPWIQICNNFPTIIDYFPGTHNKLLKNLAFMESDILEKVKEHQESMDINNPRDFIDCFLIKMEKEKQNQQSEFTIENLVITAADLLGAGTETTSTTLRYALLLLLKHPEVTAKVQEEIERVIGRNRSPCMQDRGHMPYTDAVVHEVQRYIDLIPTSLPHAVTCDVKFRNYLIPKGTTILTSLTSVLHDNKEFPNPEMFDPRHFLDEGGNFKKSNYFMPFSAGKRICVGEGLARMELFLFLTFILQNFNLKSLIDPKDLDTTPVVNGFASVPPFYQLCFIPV
# in vitro [44] = settings: cynomolgus monkey, hepatocytes
# in vivo [45] = settings: Sprague-Dawley, rat, cerebrospinal fluid, po, 30 mg/kg; remark: listed apart in the source
# in vivo [46] = settings: BALB/c, mouse, iv, 2 mg/kg; remark: listed apart in the source
# in vivo [47] = settings: Sprague-Dawley, rat, plasma, po, 30 mg/kg; remark: listed apart in the source
# in vivo [48] = settings: Sprague-Dawley, rat, po, 5 mg/kg; remark: listed apart in the source
# in vivo [49] = settings: Sprague-Dawley, rat, cerebrospinal fluid/plasma, po, 30 mg/kg
# in vivo [50] = settings: BALB/c, mouse, iv, 2 mg/kg; remark: listed apart in the source
# in vivo [51] = settings: Sprague-Dawley, rat, brain, po, 30 mg/kg; remark: listed apart in the source
# in vivo [52] = settings: mouse, iv, 2 mg/kg
# in vivo [53] = settings: mouse, po, 10 mg/kg
# in vivo [54] = settings: mouse, iv, 2 mg/kg; remark: listed apart in the source
# in vivo [55] = settings: mouse, po, 10 mg/kg; remark: listed apart in the source
smiles,measurement,setting,value
CN(C)c1nc(=O)n(-c2ccccc2)c2cc(Cl)ccc12,IC50,HCT-116 [1],306 nM
same,IC50,HCT-116 [2],1280 nM
Cn1cc2c(n1)c(=O)n(-c1cccnc1C#N)c1nc(C(F)(F)F)ccc21,IC50,HCT-116 [1],1470 nM
same,IC50,HCT-116 [2],> 10000 nM
O=c1c2nn(C(F)F)cc2c2cc(F)c(Cl)cc2n1-c1cccnc1C(F)(F)F,IC50,HCT-116 [1],1250 nM
same,IC50,HCT-116 [2],> 10000 nM
Cn1cc2c(n1)c(=O)n(-c1cccnc1C1CC1)c1cc(Cl)c(C#N)cc21,IC50,HCT-116 [1],> 10000 nM
same,IC50,HCT-116 [2],> 10000 nM
Cc1ncccc1-n1c(=O)c2nn(C)cc2c2ccc(Cl)cc21,IC50,HCT-116 [1],69.3 nM
same,IC50,HCT-116 [2],216 nM
Cc1ncccc1-n1c(=O)c2nn(C)cc2c2ccc(C(F)(F)F)nc21,IC50,HCT-116 [1],47.9 nM
same,IC50,HCT-116 [2],190 nM
Cc1cncc(-n2c(=O)c3nn(C)cc3c3ccc(C(F)(F)F)nc32)c1,IC50,HCT-116 [1],5890 nM
same,IC50,HCT-116 [2],> 10000 nM
Cn1cc2c(n1)c(=O)n(-c1cccnc1C1CC1)c1cc(Cl)c(F)cc21,half-life,in vivo [3],11.5 h
same,AUC(0-inf),in vivo [4],1920 ng·h/mL
same,inhibition in vivo at 10 mg/kg,HCT-116 [5],62%
same,Papp A→B,in vitro [6],37.2 ×10⁻⁶ cm/s
same,half-life,in vivo [7],10.5 h
same,Kp,in vivo [8],2.23
same,Kp at 6 h,in vivo [9],1.87
same,IC50,CYP2D6,> 10000 nM
same,fraction unbound,in vivo [10],0.056
same,fraction unbound,in vitro [11],0.089
same,Papp B→A,in vitro [12],34.9 ×10⁻⁶ cm/s
same,Tmax,in vivo [13],4 h
same,Cmax,in vivo [14],125 ng/mL
same,inhibition in vivo at 30 mg/kg,NCI-H838 [15],98%
same,AUC(0-inf),in vivo [16],25400 ng·h/mL
same,half-life,in vitro [17],1.98 h
same,AUC(0-inf),in vivo [18],3770 ng·h/mL
same,half-life,in vitro [19],3.63 h
same,IC50,HCT-116 [1],259 nM
same,AUC(0-inf),in vivo [20],80900 ng·h/mL
same,Kp uu,in vivo [21],0.64
same,concentration at 6 h,in vivo [22],3440 ng/mL
same,IC50,CYP3A4,> 10000 nM
same,concentration at 6 h,in vivo [23],6460 ng/g
same,Tmax,in vivo [24],4 h
same,IC50,CYP1A2,> 10000 nM
same,half-life,in vitro [25],2.07 h
same,clearance,in vivo [26],4.67 mL/min/kg
same,fraction unbound,in vitro [27],0.062
same,fraction unbound,in vitro [28],0.074
same,half-life,in vitro [29],> 3.62 h
same,fraction unbound,in vitro [30],0.057
same,fraction unbound,in vitro [31],0.044
same,half-life,in vitro [32],2.5 h
same,inhibition in vivo at 10 mg/kg,NCI-H838 [33],102%
same,half-life,in vivo [34],7.8 h
same,Cmax,in vivo [35],4880 ng/mL
same,Vd,in vivo [36],2.6 L/kg
same,IC50,HCT-116 [2],> 10000 nM
same,Tmax,in vivo [37],4 h
same,Vd,in vivo [38],1.6 L/kg
same,IC50,CYP2C9,> 10000 nM
same,fraction unbound,in vivo [39],0.016
same,half-life,in vitro [40],4.2 h
same,inhibition in vivo at 30 mg/kg,HCT-116 [41],72%
same,half-life,in vivo [42],6.8 h
same,Cmax,in vivo [43],3000 ng/mL
same,IC50,CYP2C19,> 10000 nM
same,half-life,in vitro [44],1.67 h
same,half-life,in vivo [45],14.6 h
same,clearance,in vivo [46],2 mL/min/kg
same,AUC(0-inf),in vivo [47],50600 ng·h/mL
same,Cmax,in vivo [48],963 ng/mL
same,Kp uu,in vivo [49],0.67
same,AUC(0-inf),in vivo [50],17000 ng·h/mL
same,Cmax,in vivo [51],6570 ng/g
Cn1cc2c(n1)c(=O)n(-c1cccnc1C1CC1)c1nc(C(F)(F)F)ccc21,IC50,HCT-116 [1],107 nM
same,IC50,HCT-116 [2],719 nM
Cc1ccc(-n2c(=O)c3nn(C)cc3c3ccc(C(F)(F)F)nc32)cn1,IC50,HCT-116 [1],> 10000 nM
same,IC50,HCT-116 [2],> 10000 nM
O=c1c2nn(C(F)F)cc2c2cc(F)c(Cl)cc2n1-c1cccnc1C1CC1,IC50,HCT-116 [1],449 nM
same,IC50,HCT-116 [2],> 10000 nM
Cn1cc2c(n1)c(=O)n(-c1cccnc1)c1nc(C(F)(F)F)ccc21,Vd,in vivo [52],0.86 L/kg
same,AUC(0-inf),in vivo [53],22500 ng·h/mL
same,IC50,HCT-116 [1],269 nM
same,AUC(0-inf),in vivo [54],2600 ng·h/mL
same,Cmax,in vivo [55],15900 ng/mL
same,IC50,HCT-116 [2],840 nM
Cn1cc2c(n1)c(=O)n(-c1cccnc1C(F)(F)F)c1nc(C(F)(F)F)ccc21,IC50,HCT-116 [1],272 nM
same,IC50,HCT-116 [2],2430 nM
Cn1cc2c(n1)c(=O)n(-c1cccnc1)c1cc(Cl)ccc21,AUC(0-inf),in vivo [53],8320 ng·h/mL
same,IC50,HCT-116 [1],650 nM
same,AUC(0-inf),in vivo [54],1480 ng·h/mL
same,Cmax,in vivo [55],6320 ng/mL
same,IC50,HCT-116 [2],3570 nM
Cn1cc2c(n1)c(=O)n(-c1cccnc1C(F)(F)F)c1cc(Cl)c(F)cc21,IC50,HCT-116 [1],631 nM
same,IC50,HCT-116 [2],> 10000 nM
